Measurements taken from patent US20100184596A1, “METHOD FOR THE CONTROL OF WEEDS IN TURF” (SYNGENTA CROP PROTECTION, INC., priority 2007, published 2010).

Experiments:
Assay type in all cases: in vivo
[1] = system: Hydrocotyle sp. (dollarweed); test: Example B7, conclusion in words
Procedure: The weed control efficacy of the compound of formula I in combination with various safeners was tested. The combinations were applied by post emergence spray application. Percentage weed control assessments were taken at various timepoints.

St. Augustinegrass = test: Phytotoxicity via post emergence spray application (Table B2.1)
Procedure: (§1) The phytotoxicity of the compound of formula I to turfgrass species was tested. The compound was applied via post emergence spray to a range of warm and cool season turfgrass species at various rates and spray treatment treatment regimes. Percentage phytotoxicity assessments were taken at various timepoints.

Dandelion = test: Selective post-emergence herbicidal action, field trial Hudson (Table B1.2); conditions: 28 days after application
Procedure: (§2) The selectivity of the compound of formula I in turf (removal of grassy and broadleaf weeds) has been tested in turfgrass varieties selected from Kentucky bluegrass, tall fescue and perennial ryegrass and in […] selected from clover (an aggressive perennial weed) and dandelion (a weed of perennial horticultural crops and gardens which may also be a problem in some annual crops, particularly where reduced tillage is practiced).
(§3) The trials were conducted in Champaign, Ill., U.S. (Table B1.1) and Hudson, N.Y., U.S. (Table B1.2) under field conditions. Turfgrasses were maintained at approximately a 2.5″ height, like a home lawn. Mixed turf and weed stands were present. The test compounds were applied with a CO2 pressurized backpack sprayer by spraying in the form of an aqueous suspension (prepared from a wettable powder) in a concentration of 210 to 280 g/ha. The plots were then mowed and irrigated as needed. After 22 and 28 days respectively, the test is visually evaluated (100%=total damage to plant; 0%=no damage to plant).

Tall fescue = test: as above; conditions: 28 days after application
Procedure: as §2, §3

Tall fescue v. Coronado = test: Phytotoxicity of granule formulations with safeners (Table B4.4); conditions: 8 DAT
Procedure: The phytotoxicity to turfgrass of the compound of formula I in combination with various safeners was tested. The combinations were applied by post emergence spray application. Percentage phytotoxicity assessments were taken at various timepoints. The safeners tested in these trials were cloquintocet-mexyl, cyprosulfamide, a compound of formula 2.3, and isoxadifen-ethyl.
Tables B4.4 and B4.5 present the results of trials using safeners applied in combination with granule formulations of the compound of formula I.

[2] = system: Bermudagrass v. Tifway 419; test: Phytotoxicity via granule application (Table B3.2)
Procedure: The phytotoxicity of the compound of formula I to turfgrass species was tested. The compound was applied by distribution of granule formulations of formula I, post emergence, to turfgrass species at two rates. All treatments were watered-in 1 day after application. Percentage phytotoxicity assessments were taken at various timepoints.
Two granule formulations were made and tested. Granule A is an inert granule formulation, comprising 99.06 wt % DG Lite 150 granules, 0.14 wt % compound of formula I, 0.50 wt % Sunspray 6N, and 0.30 wt % HiSil 233. The compound of formula I was added to the DG Lite granules while blending in a Continental Rollo-mixer.
Sunspray 6N oil was then sprayed onto the granules, and HiSil added to dry excess liquid and improve granule flowability. The granules were blended in the mixer for 20-30 minutes until homogeneous, and passed through a −12/+60 mesh to remove over and under sized particles.
Granule B is a fertiliser granule formulation, comprising 54.65 wt % urea, 6.63 wt % triple super phosphate, 4.95 wt % potassion chloride, 9.91 wt % huber clay, 7.22 wt % HiSil 233, 0.16 wt % compound of formula I, […] agnique ME 181, 2.07 wt % stepfac 8180, and 11.98 wt % water. […] The remaining HiSil was added and granules dried at 40-60° C., to remove excess liquid. Finally, the granules were passed through a −12/+60 mesh to remove over and under sized particles.

[3] = system: Kentucky bluegrass (3D blend); test: Phytotoxicity via post emergence spray application (Table B2.6); conditions: 1 appl
Procedure: as §1

COCCOCc1nc(C(F)(F)F)ccc1C(=O)C1=C(O)C2CCC(C2)C1=O (stereo not drawn) [Formula I, 4-Hydroxy-3-[2-(2-methoxyethoxymethyl)-6-trifluoromethylpyridine-3-carbonyl]-bicyclo[3.2.1]oct-3-en-2-one]
herbicidal efficacy in presence of a safener, in words [1]: does not significantly effect the herbicidal efficacy | % phytotoxicity (St. Augustinegrass; 1 appl, 140 g ai/ha, 8 DAT): 36.67% | % phytotoxicity (St. Augustinegrass; 1 appl, 140 g ai/ha, 14 DAT): 28.33% | % phytotoxicity (St. Augustinegrass; 1 appl, 140 g ai/ha, 29 DAT): 0.00% | % phytotoxicity (St. Augustinegrass; 1 appl, 140 g ai/ha, 35 DAT): 0.00% | % phytotoxicity (St. Augustinegrass; 1 appl, 140 g ai/ha, 43 DAT): 0.00% | % phytotoxicity (St. Augustinegrass; 1 appl, 140 g ai/ha, 51 DAT): 0.00% | % phytotoxicity (St. Augustinegrass; 1 appl, 280 g ai/ha, 8 DAT): 40.00% | % phytotoxicity (St. Augustinegrass; 1 appl, 280 g ai/ha, 14 DAT): 43.33% | % phytotoxicity (St. Augustinegrass; 1 appl, 280 g ai/ha, 29 DAT): 0.00% | % phytotoxicity (St. Augustinegrass; 1 appl, 280 g ai/ha, 35 DAT): 0.00% | % phytotoxicity (St. Augustinegrass; 1 appl, 280 g ai/ha, 43 DAT): 0.00% | % phytotoxicity (St. Augustinegrass; 1 appl, 280 g ai/ha, 51 DAT): 0.00% | % phytotoxicity (St. Augustinegrass; 2 appl, 140 g ai/ha, 8 DAT): 43.33% | % phytotoxicity (St. Augustinegrass; 2 appl, 140 g ai/ha, 14 DAT): 40.00% | % phytotoxicity (St. Augustinegrass; 2 appl, 140 g ai/ha, 29 DAT): 0.00% | % phytotoxicity (St. Augustinegrass; 2 appl, 140 g ai/ha, 35 DAT): 28.33% | % phytotoxicity (St. Augustinegrass; 2 appl, 140 g ai/ha, 43 DAT): 8.33% | % phytotoxicity (St. Augustinegrass; 2 appl, 140 g ai/ha, 51 DAT): 1.67% | % phytotoxicity (St. Augustinegrass; 2 appl, 280 g ai/ha, 8 DAT): 41.67% | % phytotoxicity (St. Augustinegrass; 2 appl, 280 g ai/ha, 14 DAT): 51.67% | % phytotoxicity (St. Augustinegrass; 2 appl, 280 g ai/ha, 29 DAT): 0.00% | % phytotoxicity (St. Augustinegrass; 2 appl, 280 g ai/ha, 35 DAT): 30.00% | % phytotoxicity (St. Augustinegrass; 2 appl, 280 g ai/ha, 43 DAT): 11.67% | % phytotoxicity (St. Augustinegrass; 2 appl, 280 g ai/ha, 51 DAT): 5.00% | % damage (Dandelion; 210 g/ha): 82.5% | % damage (Dandelion; 280 g/ha): 90% | % damage (Tall fescue; 210 g/ha): 0% | % damage (Tall fescue; 280 g/ha): 0% | % phytotoxicity (Tall fescue v. Coronado; DG Lite granule, no safener, 680 g ai/ha): 20.0% | % phytotoxicity (Tall fescue v. Coronado; DG Lite granule, safener Cyprosulfamide (0.07%), 680 g ai/ha): 22.5% | % phytotoxicity (Tall fescue v. Coronado; DG Lite granule, safener Formula 2.3 (0.07%), 680 g ai/ha): 16.3% | % phytotoxicity (Tall fescue v. Coronado; DG Lite granule, safener Isoxadifen (0.07%), 680 g ai/ha): 21.3% | % phytotoxicity (Tall fescue v. Coronado; Spray, no safener, 340 g ai/ha): 18.8% | % phytotoxicity ([2]; Granule A (inert), 112 g ai/ha, 7 DAT): 6.00% | % phytotoxicity ([2]; Granule A (inert), 112 g ai/ha, 11 DAT): 0.00% | % phytotoxicity ([2]; Granule A (inert), 280 g ai/ha, 7 DAT): 23.30% | % phytotoxicity ([2]; Granule A (inert), 280 g ai/ha, 11 DAT): 8.30% | % phytotoxicity ([2]; Granule A (inert), 280 g ai/ha, 15 DAT): 2.30% | % phytotoxicity ([2]; Granule A (inert), 280 g ai/ha, 20 DAT): 0.00% | % phytotoxicity ([2]; Granule B (fertiliser), 112 g ai/ha, 7 DAT): 16.70% | % phytotoxicity ([2]; Granule B (fertiliser), 280 g ai/ha, 7 DAT): 33.30% | % phytotoxicity ([3]; 10 g ai/ha, 4 DAT): 7.50% | % phytotoxicity ([3]; 10 g ai/ha, 12 DAT): 0.00% | % phytotoxicity ([3]; 10 g ai/ha, 22 DAT): 0.00% | % phytotoxicity ([3]; 10 g ai/ha, 33 DAT): 0.00% | % phytotoxicity ([3]; 10 g ai/ha, 42 DAT): 0.00% | % phytotoxicity ([3]; 10 g ai/ha, 160 DAT): 0.00% | % phytotoxicity ([3]; 20 g ai/ha, 4 DAT): 2.50% | % phytotoxicity ([3]; 20 g ai/ha, 12 DAT): 0.00% | % phytotoxicity ([3]; 20 g ai/ha, 22 DAT): 0.00% | % phytotoxicity ([3]; 20 g ai/ha, 33 DAT): 0.00% | % phytotoxicity ([3]; 20 g ai/ha, 42 DAT): 0.00% | % phytotoxicity ([3]; 20 g ai/ha, 160 DAT): 0.00% | % phytotoxicity ([3]; 40 g ai/ha, 4 DAT): 7.50% | % phytotoxicity ([3]; 40 g ai/ha, 12 DAT): 0.00% | % phytotoxicity ([3]; 40 g ai/ha, 22 DAT): 0.00% | % phytotoxicity ([3]; 40 g ai/ha, 33 DAT): 0.00% | % phytotoxicity ([3]; 40 g ai/ha, 42 DAT): 0.00% | % phytotoxicity ([3]; 40 g ai/ha, 160 DAT): 0.00% | % phytotoxicity ([3]; 80 g ai/ha, 4 DAT): 7.50% | % phytotoxicity ([3]; 80 g ai/ha, 12 DAT): 0.00% | % phytotoxicity ([3]; 80 g ai/ha, 22 DAT): 0.00% | % phytotoxicity ([3]; 80 g ai/ha, 33 DAT): 0.00% | % phytotoxicity ([3]; 80 g ai/ha, 42 DAT): 0.00% | % phytotoxicity ([3]; 80 g ai/ha, 160 DAT): 0.00% | % phytotoxicity ([3]; 160 g ai/ha, 4 DAT): 7.50% | % phytotoxicity ([3]; 160 g ai/ha, 12 DAT): 0.00% | % phytotoxicity ([3]; 160 g ai/ha, 22 DAT): 0.00% | % phytotoxicity ([3]; 160 g ai/ha, 33 DAT): 0.00% | % phytotoxicity ([3]; 160 g ai/ha, 42 DAT): 0.00% | % phytotoxicity ([3]; 160 g ai/ha, 160 DAT): 0.00%
